Reference: patent publication EP2361243B9 (Virobay, Inc., priority 2008, dated 2010)

What was measured:
Type in all cases: biochemical
Human cathepsin L = Human cathepsin L (Homo sapiens, UniProt P07711); assay: Cathepsin L Assay; details: apparent inhibition constant; substrate Z-Phe-Arg-AMC, pH 5.5, 30 min incubation at room temperature; read-out: CATL (Ki)
Experimental: (§1) Solutions of test compounds in varying concentrations were prepared in 10 µL of dimethyl sulfoxide (DMSO) and then diluted into assay buffer (40 µL, comprising: MES, 50 mM (pH 5.5); EDTA, 2.5 mM; and DTT, 2.5 mM). Human cathepsin L (0.05 pMoles in 25 µL of assay buffer) was added to the dilutions. The assay solutions were mixed for 5-10 seconds on a shaker plate, covered and incubated for 30 min at room temperature. Z-Phe-Arg-AMC (1 nMoles in 25 µL of assay buffer) was added to the assay solutions and hydrolysis was followed spectrophotometrically at (λ 460 nm) for 5 min. Apparent inhibition constants (Ki) were calculated from the enzyme progress curves using standard mathematical models.

Human cathepsin F = target: T1, Human cathepsin F (Homo sapiens, UniProt Q9UBX1); assay: Cathepsin F Assay; details: apparent inhibition constant; substrate Z-Phe-Arg-AMC, pH 6.5, 30 min incubation at room temperature; read-out: CATF (Ki)
T1 sequence (Q9UBX1 271-484): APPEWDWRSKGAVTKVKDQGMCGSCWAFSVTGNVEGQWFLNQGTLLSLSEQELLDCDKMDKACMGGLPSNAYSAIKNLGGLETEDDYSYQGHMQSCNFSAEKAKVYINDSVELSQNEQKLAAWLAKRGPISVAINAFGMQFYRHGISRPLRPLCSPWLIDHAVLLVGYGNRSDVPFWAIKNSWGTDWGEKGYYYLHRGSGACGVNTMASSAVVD
Experimental: (§2) Solutions of test compounds in varying concentrations were prepared in 10 µL of dimethyl sulfoxide (DMSO) and then diluted into assay buffer (40 µL, comprising: MES, 50 mM (pH 6.5); EDTA, 2.5 mM; and NaCl, 100 mM); DTT, 2.5 mM; and BSA, 0.01 %. Human cathepsin F (0.1 pMoles in 25 µL of assay buffer) was added to the dilutions. The assay solutions were mixed for 5-10 seconds on a shaker plate, covered and incubated for 30 min at room temperature. Z-Phe-Arg-AMC (2 nMoles in 25 µL of assay buffer containing 10% DMSO) was added to the assay solutions and hydrolysis was followed spectrophotometrically (at λ 460 nm) for 5 min. Apparent inhibition constants (Ki) were calculated from the enzyme progress curves using standard mathematical models.

Human cathepsin B = Human cathepsin B (Homo sapiens, UniProt P07858); assay: Cathepsin B Assay; details: apparent inhibition constant; substrate Z-FR-AMC, pH 6, 30 min incubation at room temperature; read-out: CATB (Ki)
Experimental: as §1, with “N,N-bis(2-hydroxyethyl)-2-aminoethanesulfonic acid (BES),” for “MES,”, “6); polyoxyethylenesorbitan monolaurate, 0.05%;” for “5.5); EDTA, 2.5 mM;”, “dithiothreitol (DTT),” for “DTT,”, “B (0.025” for “L (0.05”, “Z-FR-AMC (20” for “Z-Phe-Arg-AMC (1”

CATV = CATV (Homo sapiens, UniProt O60911); assay: Cathepsin V inhibition (CATV Ki, no method described)
CATV, sequence (O60911 114-334): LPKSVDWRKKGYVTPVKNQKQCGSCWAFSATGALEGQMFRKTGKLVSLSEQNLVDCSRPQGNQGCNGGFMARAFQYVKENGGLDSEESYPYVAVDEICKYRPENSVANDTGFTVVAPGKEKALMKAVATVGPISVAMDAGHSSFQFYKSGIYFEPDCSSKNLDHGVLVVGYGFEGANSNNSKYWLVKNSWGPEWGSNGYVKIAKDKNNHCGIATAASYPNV

Human cathepsin S = Human cathepsin S (Homo sapiens, UniProt P25774); assay: Cathepsin S Assay; details: apparent inhibition constant; substrate Z-Val-Val-Arg-AMC, pH 6.5, 30 min incubation at room temperature; read-out: CATS (Ki)
Human cathepsin S, sequence (P25774 115-331): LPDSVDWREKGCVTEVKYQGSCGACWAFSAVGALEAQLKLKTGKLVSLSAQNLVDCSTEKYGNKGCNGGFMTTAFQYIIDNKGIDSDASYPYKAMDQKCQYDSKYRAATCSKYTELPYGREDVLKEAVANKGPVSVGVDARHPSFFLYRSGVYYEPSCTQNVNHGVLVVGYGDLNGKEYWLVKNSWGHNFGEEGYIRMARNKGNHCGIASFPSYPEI
Experimental: as §2, with “β-mercaptoethanol,” for “DTT,”, “[…].” for “0.01 %.”, “S (0.05” for “F (0.1”, “Z-Val-Val-Arg-AMC (4” for “Z-Phe-Arg-AMC (2”, “λ,” for “λ”

Human cathepsin L, sequence (P07711 114-333): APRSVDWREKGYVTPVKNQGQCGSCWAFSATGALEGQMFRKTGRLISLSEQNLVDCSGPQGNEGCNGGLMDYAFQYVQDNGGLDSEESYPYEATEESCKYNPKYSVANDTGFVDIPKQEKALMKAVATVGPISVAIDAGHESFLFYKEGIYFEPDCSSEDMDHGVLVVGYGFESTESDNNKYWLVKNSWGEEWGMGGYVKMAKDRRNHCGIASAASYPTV

SMILES | Ki (Human cathepsin L) [nM] | Ki (Human cathepsin F) [nM] | Ki (Human cathepsin B) [nM] | Ki (CATV) [nM] | Ki (Human cathepsin S) [nM]
CC#C[C@H](N[C@@H](CSCc1cccnc1)C(=O)NC1(C#N)CC1)C(F)(F)Oc1ccc(SC)cc1 [G] | > 1000 | > 1000 | > 1000 | < 1000 | < 100
CC#C[C@H](N[C@@H](CSCc1ccccn1)C(=O)NC1(C#N)CC1)C(F)(F)Oc1ccc(SC)cc1 [E, (R)-N-(1-cyanocyclopropyl)-2-((S)-1,1-difluoro-1-(4-(methylthio)phenoxy)pent-3-yn-2-ylamino)-3-(pyridin-2-ylmethylthio)propanamide] | > 1000 | > 1000 | > 1000 | < 1000 | < 100
CC[C@H](NC(=O)[C@H](CS(=O)(=O)Cc1cccnc1)NCC(F)(F)Oc1ccc(F)cc1)C(=O)C(=O)NC1CC1 [B, (S)-N-cyclopropyl-3-((R)-2-(2,2-difluoro-2-(4-fluorophenoxy)ethylamino)-3-(pyridin-3-ylmethylsulfonyl)propanamido)-2-oxopentanamide] | < 100 | < 1000 | < 100 | < 100 | < 100
CC#C[C@H](N[C@@H](CS(=O)(=O)CC1CC1)C(=O)NC1(C#N)CC1)C(F)(F)Oc1ccc(S(C)(=O)=O)cc1 [D, (R)-N-(1-cyanocyclopropyl)-3-(cyclopropylmethylsulfonyl)-2-((S)-1,1-difluoro-1-(4-(methylsulfonyl)phenoxy)pent-3-yn-2-ylamino)propanamide] | > 1000 | > 1000 | > 1000 | < 1000 | < 100
CC#C[C@H](N[C@@H](CSCC1CC1)C(=O)NC1(C#N)CC1)C(F)(F)Oc1ccc(SC)cc1 [Compound C, (R)-N-(1-cyanocyclopropyl)-3-(cyclopropylmethylthio)-2-((S)-1,1-difluoro-1-(4-(methylthio)phenoxy)pent-3-yn-2-ylamino)propanamide] | > 1000 | > 1000 | < 100 | > 1000 | < 1000
CC#C[C@H](N[C@@H](CS(=O)(=O)Cc1ccc[n+]([O-])c1)C(=O)NC1(C#N)CC1)C(F)(F)Oc1ccc(S(C)(=O)=O)cc1 [I] | > 1000 | > 1000 | > 1000 | < 100 | < 100
CC#C[C@H](N[C@@H](CS(=O)(=O)Cc1cccnc1)C(=O)NC1(C#N)CC1)C(F)(F)Oc1ccc(S(C)(=O)=O)cc1 [H, (R)-N-(1-cyanocyclopropyl)-3-((S)-1,1 1-difluoro-1-(4-(methylsulfonyl)phenoxy)pent-3-yn-2-ylamino)-2-((pyridin-3-ylmethylsulfonyl)methyl)propanamide] | > 1000 | > 1000 | > 1000 | < 100 | < 100
N#CC1(NC(=O)[C@H](CS(=O)(=O)Cc2cccnc2)NCC(F)(F)Oc2ccc(F)cc2)CC1 [A, (R)-N-(1-cyanocyclopropyl)-2-(2,2-difluoro-2-(4-fluorophenoxy)ethylamino)-3-(pyridin-3-ylmethylsulfonyl)propanamide] | > 1000 | > 1000 | > 1000 | < 1000 | < 100

More lines, now with the values ahead:

Ki (Human cathepsin L) [nM] | Ki (Human cathepsin F) [nM] | Ki (Human cathepsin B) [nM] | Ki (CATV) [nM] | Ki (Human cathepsin S) [nM] | SMILES
< 1000 | < 1000 | < 100 | < 100 | < 100 | CC[C@H](NC(=O)[C@H](CS(=O)(=O)CC1CC1)NCC(F)(F)Oc1ccc(F)cc1)C(=O)C(=O)NC1CC1 [J, (S)-N-cyclopropyl-3-((R)-3-(cyclopropylmethylsulfonyl)-2-(2,2-difluoro-2-(4-fluorophenoxy)ethylamino)propanamido)-2-oxopentanamide]
< 100 | – | < 1000 | < 100 | < 100 | CC[C@H](NC(=O)[C@H](CC(F)(F)CC1CC1)NCC(F)(F)Oc1ccc(F)cc1)C(=O)C(=O)NC1CC1 [K, (S)-5-cyclopropyl-N-((S)-1-(cyclopropylamino)-1,2-dioxopentan-3-yl)-2-(2,2-difluoro-2-(4-fluorophenoxy)ethylamino)-4,4-difluoropentanamide]
> 1000 | > 1000 | > 1000 | < 100 | < 100 | CC#C[C@H](N[C@@H](CS(=O)(=O)Cc1ccccn1)C(=O)NC1(C#N)CC1)C(F)(F)Oc1ccc(S(C)(=O)=O)cc1 [F, (R)-N-(1-cyanocyclopropyl)-2-((S)-1,1-difluoro-1-(4-(methylsulfonyl)phenoxy)pent-3-yn-2-ylamino)-3-(pyridin-2-ylmethylsulfonyl)propanamide]
> 1000 | – | > 1000 | > 1000 | < 1000 | N#CC1(NC(=O)[C@H](CC(F)(F)CC2CC2)NCC(F)(F)Oc2ccc(F)cc2)CC1 [L, (S)-N-(1-cyanocyclopropyl)-5-cyclopropyl-2-(2,2-difluoro-2-(4-fluorophenoxy)ethylamino)-4,4-difluoropentanamide]
